Laboratory results from ChEMBL document CHEMBL4229531, “Synthesis and evaluation of 1,2,3,4-tetrahydro-1-acridone analogues as potential dual inhibitors for amyloid-beta and tau aggregation” (Bioorg Med Chem, 2018).
Activity calls are given as the source filed them. The rule behind the calls is not given here.

Columns and labels:
Homo sapiens [1] = species: Homo sapiens; test: Inhibition of recombinant full length tau 0N4R (unknown origin) aggregation expressed in Escherichia coli at 20 uM after 72 hrs by thioflavin S assay relative to control
[2] = Permeability of the compound at 100 ug/ml after 10 hrs by artificial membrane permeability assay; format: ADME; conditions: PAMPA; read-out: permeability
[3] = target: T1, Amyloid-beta precursor protein (Homo sapiens, UniProt P05067); test: Inhibition of self-induced amyloid beta (1 to 42) (unknown origin) aggregation at 20 uM after 72 hrs by thioflavin T assay relative to control
[4] = target: T1, Amyloid-beta precursor protein; test: Inhibition of self-induced amyloid beta (1 to 42) (unknown origin) fibril formation at 20 uM after 24 hrs by uranyl acetate staining-based transmission electron microscopic method
[5] = test system: Microtubule-associated protein tau (Mus musculus), P10637 [P243L]; test: Inhibition of congo red-induced EGFP-tagged Tau P301L mutant (unknown origin) aggregation expressed in HEK293T cells at 0.5 uM pretreated for 30 mins followed by congo red addition and measured after 24 hrs by DAPI staining-based fluorescence assay; format: cell-based; conditions: Homo sapiens
[6] = Binding affinity to recombinant full length tau 0N4R (unknown origin) expressed in Escherichia coli by surface plasmon resonance assay; set-up: species or system Homo sapiens
[7] = target: T1, Amyloid-beta precursor protein; test: Inhibition of amyloid beta (1 to 42) (unknown origin) beta-sheet formation at 20 uM after 24 hrs by CD spectroscopic method
HEK-293T = test: Effect on proliferation of HEK293T cells transfected with EGFP-tagged Tau P301L mutant at 1 uM; format: cell-based; conditions: human
[8] = test system: Microtubule-associated protein tau (Mus musculus), P10637 [P243L]; test: Inhibition of congo red-induced EGFP-tagged Tau P301L mutant (unknown origin) aggregation expressed in HEK293T cells at 1 uM pretreated for 30 mins followed by congo red addition and measured after 24 hrs by DAPI staining-based fluorescence assay; format: cell-based; conditions: Homo sapiens
[9] = target: T1, Amyloid-beta precursor protein; test: Binding affinity to amyloid beta (1 to 42) (unknown origin) by surface plasmon resonance assay
Homo sapiens [10] = species: Homo sapiens; test: Inhibition of fibril formation of recombinant full length tau 0N4R (unknown origin) expressed in Escherichia coli at 20 uM after 24 hrs by uranyl acetate staining-based transmission electron microscopic method

T1 sequence (P05067 whole entry): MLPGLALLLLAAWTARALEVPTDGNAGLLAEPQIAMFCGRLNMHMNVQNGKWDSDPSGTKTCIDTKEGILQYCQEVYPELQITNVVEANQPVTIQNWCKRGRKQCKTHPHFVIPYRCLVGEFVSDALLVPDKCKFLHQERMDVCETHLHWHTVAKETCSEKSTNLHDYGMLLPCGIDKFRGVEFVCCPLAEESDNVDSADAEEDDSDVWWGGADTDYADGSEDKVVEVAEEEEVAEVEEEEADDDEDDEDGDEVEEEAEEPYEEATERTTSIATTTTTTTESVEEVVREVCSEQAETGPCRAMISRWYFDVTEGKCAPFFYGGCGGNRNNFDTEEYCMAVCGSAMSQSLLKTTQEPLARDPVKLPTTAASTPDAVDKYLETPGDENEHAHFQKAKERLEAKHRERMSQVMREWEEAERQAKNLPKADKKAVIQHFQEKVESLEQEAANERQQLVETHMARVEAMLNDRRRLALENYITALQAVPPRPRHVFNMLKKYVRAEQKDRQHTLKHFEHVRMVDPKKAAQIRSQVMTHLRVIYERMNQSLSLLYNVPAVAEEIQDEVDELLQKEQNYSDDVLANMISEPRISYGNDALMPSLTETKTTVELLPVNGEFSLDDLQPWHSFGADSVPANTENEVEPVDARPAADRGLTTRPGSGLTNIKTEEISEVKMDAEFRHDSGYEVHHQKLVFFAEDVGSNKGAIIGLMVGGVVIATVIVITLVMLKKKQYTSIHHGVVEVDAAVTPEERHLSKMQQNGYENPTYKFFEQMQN
Microtubule-associated protein tau (Mus musculus), P10637 [P243L], sequence (P10637 whole entry P243L): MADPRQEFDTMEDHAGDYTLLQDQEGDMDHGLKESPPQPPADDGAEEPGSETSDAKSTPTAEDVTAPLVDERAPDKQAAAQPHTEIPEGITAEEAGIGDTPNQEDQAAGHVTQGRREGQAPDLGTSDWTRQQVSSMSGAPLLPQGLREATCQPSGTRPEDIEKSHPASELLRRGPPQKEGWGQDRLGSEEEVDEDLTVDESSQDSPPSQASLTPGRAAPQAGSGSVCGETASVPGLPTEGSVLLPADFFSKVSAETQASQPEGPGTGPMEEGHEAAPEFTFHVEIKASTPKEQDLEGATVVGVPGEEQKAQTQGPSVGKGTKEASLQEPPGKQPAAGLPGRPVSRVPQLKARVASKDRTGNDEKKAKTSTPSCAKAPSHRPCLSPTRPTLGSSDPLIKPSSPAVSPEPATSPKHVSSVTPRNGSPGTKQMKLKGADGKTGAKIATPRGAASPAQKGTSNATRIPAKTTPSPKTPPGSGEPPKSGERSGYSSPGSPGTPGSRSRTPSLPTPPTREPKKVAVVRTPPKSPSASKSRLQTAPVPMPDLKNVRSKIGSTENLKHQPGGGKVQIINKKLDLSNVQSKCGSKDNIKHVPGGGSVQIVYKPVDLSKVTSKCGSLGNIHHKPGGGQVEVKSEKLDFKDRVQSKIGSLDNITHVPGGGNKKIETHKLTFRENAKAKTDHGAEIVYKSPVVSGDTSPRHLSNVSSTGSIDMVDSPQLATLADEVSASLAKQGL

SMILES	inhibition (Homo sapiens [1])	Papp at 10 h, 100 ug/ml [2]	inhibition [3]	further results
Nc1c2c(nc3ccccc13)CC/C(=C\c1ccccc1)C2=O	18.7%	26.4 ×10⁻⁶ cm/s	7.7%	–
Nc1c2c(nc3ccccc13)CC/C(=C\c1cccc(Cl)c1)C2=O	-3.1%	1.1 ×10⁻⁶ cm/s	34.2%	–
C[n+]1c2c(c(N)c3ccccc31)C(=O)/C(=C/c1cccc(Cl)c1)CC2.[I-]	98.3%	4.1 ×10⁻⁶ cm/s	91.9%	–
COc1cccc(/C=C2\CCc3nc4ccccc4c(N)c3C2=O)c1	44.3%	7.5 ×10⁻⁶ cm/s	7.9%	–
Nc1c2c(nc3ccccc13)CC/C(=C/c1cccc(Cl)c1)C2=O	–	15.6 ×10⁻⁶ cm/s	–	–
Nc1c2c(nc3ccccc13)CC/C(=C/c1ccccc1)C2=O	–	13.3 ×10⁻⁶ cm/s	–	–
Nc1c2c(nc3ccccc13)CC/C(=C\c1cccc3ccccc13)C2=O	-6.7%	0.5 ×10⁻⁶ cm/s	7.8%	–
O=C1/C(=C/c2ccccc2)CCc2nc3ccccc3cc21	20.5%	8.6 ×10⁻⁶ cm/s	-3.2%	–
Nc1c2c(nc3ccccc13)CCC(Cc1ccccc1)C2=O (stereo not given)	10%	13.9 ×10⁻⁶ cm/s	-4%	–
C[n+]1c2c(c(N)c3ccccc31)C(=O)/C(=C/c1cccc([N+](=O)[O-])c1)CC2.[I-]	98.2%	2.1 ×10⁻⁶ cm/s	86.4%	–
Nc1c2c(nc3ccccc13)CC/C(=C\c1ccccc1F)C2=O	25.3%	6.9 ×10⁻⁶ cm/s	37%	–
Nc1c2c(nc3ccccc13)CC/C(=C\C=C\c1ccccc1)C2=O	-3.8%	1.3 ×10⁻⁶ cm/s	2%	–
C[n+]1c2c(c(N)c3ccccc31)C(=O)/C(=C\c1cccs1)CC2.[I-]	31.6%	1.7 ×10⁻⁶ cm/s	94.9%	–
C[n+]1c2c(c(N)c3ccccc31)C(=O)/C(=C\c1cccc(F)c1)CC2.[I-]	23.3%	2.7 ×10⁻⁶ cm/s	89.1%	–
Oc1ccc(/C=C/c2cc(O)cc(O)c2)cc1	–	–	–	inhibition [4]: Active
Nc1c2c(nc3ccccc13)CC/C(=C\c1cccc(F)c1)C2=O	4.9%	5.3 ×10⁻⁶ cm/s	20.3%	–
O=C1/C(=C/c2ccc([N+](=O)[O-])cc2)CCc2nc3ccccc3cc21	6.3%	3.2 ×10⁻⁶ cm/s	2.7%	–
COc1ccc(/C=C2\CCc3nc4ccccc4c(N)c3C2=O)cc1	43.4%	10.5 ×10⁻⁶ cm/s	-2%	–
Nc1c2c(nc3ccccc13)CC/C(=C/c1cccc(F)c1)C2=O	–	20.3 ×10⁻⁶ cm/s	–	–
C[n+]1c2c(c(N)c3ccccc31)C(=O)/C(=C/c1ccccc1)CC2.[I-]	71.2%	2.4 ×10⁻⁶ cm/s	84.7%	–
C[n+]1c2c(c(N)c3ccccc31)C(=O)/C(=C\c1cccc3ccccc13)CC2.[I-]	79.2%	3.5 ×10⁻⁶ cm/s	91.2%	–
Nc1c2c(nc3ccccc13)CC/C(=C/c1cccc3ccccc13)C2=O	–	49.5 ×10⁻⁶ cm/s	-6.8%	–

SMILES	inhibition (Homo sapiens [1])	Papp at 10 h, 100 ug/ml [2]	inhibition [3]	further results
C[n+]1c2c(c(N)c3ccccc31)C(=O)/C(=C\c1cccc([N+](=O)[O-])c1)CC2.[I-]	32%	1.8 ×10⁻⁶ cm/s	94.4%	–
C[n+]1c2c(c(N)c3ccccc31)C(=O)/C(=C\c1cccc(Cl)c1)CC2.[I-]	15.4%	4.6 ×10⁻⁶ cm/s	105%	–
Nc1c2c(nc3ccccc13)CC/C(=C/c1cccs1)C2=O	5.9%	10.8 ×10⁻⁶ cm/s	–	–
Nc1c2c(nc3ccccc13)CC/C(=C\c1ccc([N+](=O)[O-])cc1)C2=O	-3.3%	11.2 ×10⁻⁶ cm/s	2.4%	–
O=C1/C(=C/c2ccccc2Cl)CCc2nc3ccccc3cc21	14.9%	7.1 ×10⁻⁶ cm/s	3.5%	–
Nc1c2c(nc3ccccc13)CC/C(=C\c1ccc(Cl)cc1)C2=O	7.1%	30.3 ×10⁻⁶ cm/s	24.8%	–
C[n+]1c2c(c(N)c3ccccc31)C(=O)/C(=C/c1cccs1)CC2.[I-]	95.3%	1.7 ×10⁻⁶ cm/s	99.5%	–
CN(C)c1ccc2c(c1)Sc1cc(N(C)C)ccc1N2	–	–	–	inhibition [5]: 74.4%
O=C1/C(=C/c2cccc(Cl)c2)CCc2nc3ccccc3cc21	4.2%	2 ×10⁻⁶ cm/s	46.2%	–
Nc1c2c(nc3ccccc13)CC/C(=C\c1ccco1)C2=O	30.7%	16.2 ×10⁻⁶ cm/s	15.2%	–
CN(C)c1ccc2nc3ccc(N(C)C)cc3[s+]c2c1 [METHYLENE BLUE ANHYDROUS]	–	–	–	Kd [6]: 28.2 µM
C[n+]1c2c(c(N)c3ccccc31)C(=O)/C(=C/c1cccc3ccccc13)CC2.[I-]	102%	4.6 ×10⁻⁶ cm/s	86.7%	inhibition [4]: Active; inhibition [7]: Active; Activity (HEK-293T): Non-Toxic; inhibition [8]: 62.6%; Kd [9]: 16 µM; inhibition (Homo sapiens [10]): Active; Kd [6]: 33.7 µM
C[n+]1c2c(c(N)c3ccccc31)C(=O)/C(=C\c1ccccc1)CC2.[I-]	7.2%	1.8 ×10⁻⁶ cm/s	97.6%	–
CN(C)c1ccc2nc3ccc(=[N+](C)C)cc-3sc2c1	80.1%	–	–	–
O=C1/C(=C/c2cccc(F)c2)CCc2nc3ccccc3cc21	14.7%	17.2 ×10⁻⁶ cm/s	7.2%	–
Nc1c2c(nc3ccccc13)CC/C(=C/c1cccc([N+](=O)[O-])c1)C2=O	–	9.1 ×10⁻⁶ cm/s	–	–
Nc1c2c(nc3ccccc13)CC/C(=C\c1cccc([N+](=O)[O-])c1)C2=O	–	3.3 ×10⁻⁶ cm/s	8.2%	–
Nc1c2c(nc3ccccc13)CC/C(=C\c1cccs1)C2=O	11.9%	7.2 ×10⁻⁶ cm/s	14.5%	–
Nc1c2c(nc3ccccc13)CC/C(=C\c1ccccc1Cl)C2=O	-3.6%	7.4 ×10⁻⁶ cm/s	14.1%	–
Cc1c2c(nc3ccccc13)CC/C(=C\c1ccccc1)C2=O	15.7%	3.1 ×10⁻⁶ cm/s	16.6%	–
O=C1/C(=C/c2ccccc2F)CCc2nc3ccccc3cc21	2.9%	8.3 ×10⁻⁶ cm/s	-0.5%	–
C[n+]1c2c(c(N)c3ccccc31)C(=O)/C(=C/c1cccc(F)c1)CC2.[I-]	86.3%	3.6 ×10⁻⁶ cm/s	98.7%	–
